Measurements reported in ChEMBL document CHEMBL4665846, “Piperlonguminine and Piperine Analogues as TrxR Inhibitors that Promote ROS and Autophagy and Regulate p38 and Akt/mTOR Signaling” (J Nat Prod, 2020).
The source made the active and inactive calls. No cut-off for these calls is given here.

Columns and labels:
HCT-116 = experiment: Cytotoxicity against human HCT-116 cells assessed as reduction in cell viability after 72 hrs by MTT assay; format: functional, cell-based; settings: HCT-116, 72 h
HGC-27 [1] = experiment: Cytotoxicity against human HGC-27 cells assessed as reduction in cell viability after 72 hrs by MTT assay; format: functional, cell-based; settings: HGC-27, 72 h
HepG2 = experiment: Cytotoxicity against human HepG2 cells assessed as reduction in cell viability after 72 hrs by MTT assay; format: functional, cell-based; settings: HepG2, 72 h
Bel7402/5-FU [2] = experiment: Cytotoxicity against human BEL-7402/5-FU cells assessed as reduction in cell viability after 72 hrs by MTT assay; format: functional, cell-based
Bel-7402 = experiment: Cytotoxicity against human Bel-7402 cells assessed as reduction in cell viability after 72 hrs by MTT assay; format: functional, cell-based; settings: for IC50: Bel-7402, 72 h
[3] = biological target: T1, Thioredoxin reductase 1, cytoplasmic (Homo sapiens, UniProt Q16881); experiment: Inhibition of TrxR in human BEL-7402/5-FU cells by colorimetric assay; format: cell-based
T1 sequence (Q16881 whole entry): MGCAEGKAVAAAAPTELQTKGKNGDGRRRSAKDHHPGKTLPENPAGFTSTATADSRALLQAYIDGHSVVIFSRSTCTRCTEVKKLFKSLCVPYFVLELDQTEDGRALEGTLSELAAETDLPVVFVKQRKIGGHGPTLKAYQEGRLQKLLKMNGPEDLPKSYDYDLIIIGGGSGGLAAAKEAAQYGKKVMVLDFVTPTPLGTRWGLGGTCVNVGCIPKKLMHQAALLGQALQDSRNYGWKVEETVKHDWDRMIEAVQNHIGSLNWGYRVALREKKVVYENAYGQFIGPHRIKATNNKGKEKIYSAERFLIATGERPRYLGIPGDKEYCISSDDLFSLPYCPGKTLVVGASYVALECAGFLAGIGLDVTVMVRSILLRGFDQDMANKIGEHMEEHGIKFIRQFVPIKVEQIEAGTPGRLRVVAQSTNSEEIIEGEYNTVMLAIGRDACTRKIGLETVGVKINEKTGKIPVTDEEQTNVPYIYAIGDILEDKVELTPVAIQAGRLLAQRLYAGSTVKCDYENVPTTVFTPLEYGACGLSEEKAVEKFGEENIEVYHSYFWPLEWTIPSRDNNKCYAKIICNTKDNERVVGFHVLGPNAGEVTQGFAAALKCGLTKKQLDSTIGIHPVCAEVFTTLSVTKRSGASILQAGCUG

Bel7402/5-FU [4] = experiment: Induction of mitochondrial membrane potential loss in human BEL-7402/5-FU cells at 10 uM after 24 hrs by JC-1 staining based fluorescence microscopic method; format: functional, cell-based
[5] = biological target: T2, Serine/threonine-protein kinase AKT (Homo sapiens) (UniProt P31751+Q9Y243+P31749); experiment: Inhibition of AKT phosphorylation in human BEL-7402/5-FU cells incubated for 72 hrs by Western blot analysis; format: cell-based; settings: dose microM 0.32-2, time 72.0 hrs
[6] = Selectivity ratio of IC50 for cytotoxicity against human L02 cells to IC50 for cytotoxicity against human Bel-7402 cells; format: toxicity, cell-based; settings: L02 cells and Bel-7402 cells, read-out: Ratio IC50
Bel7402/5-FU [7] = experiment: Induction of ROS generation in human BEL-7402/5-FU cells at 10 uM using H2O2 as substrate preincubated for 24 hrs followed by substrate addition and measured after 6 hrs by ROS-Glo assay relative to control; format: functional
[8] = biological target: Serine/threonine-protein kinase mTOR (Homo sapiens) (UniProt P42345); experiment: Inhibition of mTOR phosphorylation in human BEL-7402/5-FU cells incubated for 72 hrs by Western blot analysis; format: cell-based; settings: dose microM 0.32-2, time 72.0 hrs
[9] = biological target: T3, Thioredoxin reductase 1, cytoplasmic (Homo sapiens) (UniProt Q16881); experiment: Potency index, ratio of piperlongumine IC50 to test compound IC50 for inhibition of TrXr in human BEL-7402/5-FU cells; format: cell-based
T3 sequence (whole entry): T1 sequence (Q16881 whole entry)

Bel7402/5-FU [10] = experiment: Induction of mitochondrial membrane potential loss in human BEL-7402/5-FU cells at 1 uM after 24 hrs by JC-1 staining based fluorescence microscopic method relative to piperlongumine; format: functional
Bel7402/5-FU [11] = experiment: Induction of autophagy in human BEL-7402/5-FU cells assessed as up regulation of beclin-1 protein expression after 72 hrs by Western blot analysis; format: functional, cell-based; settings: dose microM 0.32-2, time 72.0 hrs
Bel7402/5-FU [12] = experiment: Induction of autophagy in human BEL-7402/5-FU cells assessed as down regulation of LC3-1 protein expression after 72 hrs by Western blot analysis; format: functional, cell-based; settings: dose microM 0.32-2, time 72.0 hrs
HGC-27 [13] = experiment: Potency index, ratio of piperlongumine IC50 to test compound IC50 for cytotoxicity against human HGC-27 cells; format: functional
Bel7402/5-FU [14] = experiment: Induction of autophagy in human BEL-7402/5-FU cells assessed as down regulation of P62 protein expression after 72 hrs by Western blot analysis; format: functional, cell-based; settings: dose microM 0.32-2, time 72.0 hrs
Bel7402/5-FU [15] = experiment: Induction of autophagy in human BEL-7402/5-FU cells expressing mRFP-eGFP-LC3 assessed as auto lysosomes at 0.8 to 2 uM after 24 hrs by confocal laser scanning microscopic method; format: functional, cell-based; settings: dose microM 0.8-2, time 24.0 hrs
Bel7402/5-FU [16] = experiment: Induction of autophagy in human BEL-7402/5-FU cells expressing mRFP-eGFP-LC3 assessed as autophagosomes at 0.8 to 2 uM after 24 hrs by confocal laser scanning microscopic method; format: functional, cell-based; settings: dose microM 0.8-2, time 24.0 hrs
Bel7402/5-FU [17] = experiment: Potency index, ratio of piperlongumine IC50 to test compound IC50 for cytotoxicity against human BEL-7402/5-FU cells; format: functional
Bel7402/5-FU [18] = experiment: Induction of autophagy in human BEL-7402/5-FU cells assessed as up regulation of LC3-2 protein expression after 72 hrs by Western blot analysis; format: functional, cell-based; settings: dose microM 0.32-2, time 72.0 hrs
[19] = biological target: T4, MAP kinase p38 (Homo sapiens) (UniProt O15264+Q15759+Q16539+P53778); experiment: Activation of p38 phosphorylation in human BEL-7402/5-FU cells incubated for 72 hrs by Western blot analysis; format: cell-based; settings: filed as activator, dose microM 0.32-2, time 72.0 hrs
[20] = Selectivity ratio of IC50 for cytotoxicity against human L02 cells to IC50 for cytotoxicity against human BEL-7402/5-FU cells
Bel7402/5-FU [21] = experiment: Induction of autophagy in human BEL-7402/5-FU cells expressing mRFP-eGFP-LC3 assessed as auto lysosomes at 2 uM after 24 hrs by confocal laser scanning microscopic method; format: functional, cell-based
[22] = biological target: T2, Serine/threonine-protein kinase AKT (Homo sapiens); experiment: Inhibition of AKT phosphorylation in human BEL-7402/5-FU cells at 2 uM incubated for 72 hrs by Western blot analysis; format: cell-based
[23] = biological target: Serine/threonine-protein kinase mTOR (Homo sapiens) (UniProt P42345); experiment: Inhibition of mTOR phosphorylation in human BEL-7402/5-FU cells at 2 uM incubated for 72 hrs by Western blot analysis; format: cell-based
Bel7402/5-FU [24] = experiment: Induction of autophagy in human BEL-7402/5-FU cells expressing mRFP-eGFP-LC3 assessed as autophagosomes at 2 uM after 24 hrs by confocal laser scanning microscopic method; format: functional, cell-based
[25] = biological target: T4, MAP kinase p38 (Homo sapiens); experiment: Activation of p38 phosphorylation in human BEL-7402/5-FU cells at 2 uM incubated for 72 hrs by Western blot analysis; format: cell-based; settings: filed as activator

T2 sequence (P31749 whole entry, looked up): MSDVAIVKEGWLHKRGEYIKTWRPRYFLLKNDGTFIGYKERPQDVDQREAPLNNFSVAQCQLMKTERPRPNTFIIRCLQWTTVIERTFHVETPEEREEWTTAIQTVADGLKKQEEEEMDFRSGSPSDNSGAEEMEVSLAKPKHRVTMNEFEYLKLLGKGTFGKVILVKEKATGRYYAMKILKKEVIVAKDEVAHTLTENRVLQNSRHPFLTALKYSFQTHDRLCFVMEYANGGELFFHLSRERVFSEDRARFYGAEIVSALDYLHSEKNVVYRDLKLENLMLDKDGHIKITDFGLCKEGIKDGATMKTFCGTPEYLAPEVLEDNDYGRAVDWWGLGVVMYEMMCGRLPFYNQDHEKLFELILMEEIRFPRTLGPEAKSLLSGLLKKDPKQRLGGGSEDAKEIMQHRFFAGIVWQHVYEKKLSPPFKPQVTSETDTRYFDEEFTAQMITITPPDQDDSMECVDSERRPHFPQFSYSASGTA
T2 sequence (P31751 whole entry, looked up): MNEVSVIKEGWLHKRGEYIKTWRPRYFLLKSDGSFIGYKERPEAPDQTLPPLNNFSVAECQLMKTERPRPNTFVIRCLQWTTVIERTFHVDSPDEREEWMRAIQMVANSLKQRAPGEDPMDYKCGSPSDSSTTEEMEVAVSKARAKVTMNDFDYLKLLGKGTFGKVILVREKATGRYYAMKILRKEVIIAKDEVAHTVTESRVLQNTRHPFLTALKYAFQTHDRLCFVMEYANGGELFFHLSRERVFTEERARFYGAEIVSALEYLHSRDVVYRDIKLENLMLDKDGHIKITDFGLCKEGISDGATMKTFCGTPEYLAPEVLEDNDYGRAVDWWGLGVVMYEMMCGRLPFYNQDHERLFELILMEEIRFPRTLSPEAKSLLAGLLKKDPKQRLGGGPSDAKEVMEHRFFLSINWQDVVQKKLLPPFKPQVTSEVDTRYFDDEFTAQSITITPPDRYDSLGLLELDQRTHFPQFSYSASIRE
T2 sequence (Q9Y243 whole entry, looked up): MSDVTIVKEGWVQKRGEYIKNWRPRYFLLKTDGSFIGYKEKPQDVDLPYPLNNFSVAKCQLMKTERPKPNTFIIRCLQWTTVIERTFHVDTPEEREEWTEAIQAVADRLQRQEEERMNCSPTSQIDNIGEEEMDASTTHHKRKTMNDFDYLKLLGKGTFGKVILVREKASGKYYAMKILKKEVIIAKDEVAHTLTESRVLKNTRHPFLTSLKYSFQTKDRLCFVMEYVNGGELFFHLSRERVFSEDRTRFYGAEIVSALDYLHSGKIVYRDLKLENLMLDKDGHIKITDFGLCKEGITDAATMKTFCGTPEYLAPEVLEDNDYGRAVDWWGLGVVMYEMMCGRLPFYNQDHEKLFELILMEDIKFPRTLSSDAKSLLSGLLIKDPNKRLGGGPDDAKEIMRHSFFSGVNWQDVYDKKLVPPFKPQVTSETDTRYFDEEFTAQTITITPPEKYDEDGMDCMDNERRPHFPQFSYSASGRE

CC(=C\c1ccccc1)/C=C1\CCC=CC1=O
IC50 (HCT-116): 4.8 µM
IC50 (HGC-27 [1]): 5.2 µM
IC50 (HepG2): 4.6 µM
IC50 (Bel7402/5-FU [2]): 4.2 µM
IC50 (Bel-7402): 3.9 µM

Cc1ccc(/C=C/C=C2\CCC=CC2=O)cc1
IC50 (HCT-116): 7.2 µM
IC50 (HGC-27 [1]): 8.1 µM
IC50 (HepG2): 8.6 µM
IC50 (Bel7402/5-FU [2]): 5.8 µM
IC50 (Bel-7402): 6.3 µM

CC(=O)Oc1ccc(/C=C/C=C2\CCC=CC2=O)cc1
IC50 (HCT-116): 4.6 µM
IC50 (HGC-27 [1]): 4.9 µM
IC50 (HepG2): 4.5 µM
IC50 (Bel7402/5-FU [2]): 4.1 µM
IC50 (Bel-7402): 3.8 µM

O=C1C=CCC/C1=C\C=C\c1ccc(F)cc1
IC50 (HCT-116): 2.2 µM
IC50 (HGC-27 [1]): 2.3 µM
IC50 [3]: 0.6 µM
Activity (Bel7402/5-FU [4]): Active
IC50 (HepG2): 2.9 µM
IC50 (Bel7402/5-FU [2]): 1.9 µM
IC50 (Bel-7402): 1.8 µM

COc1ccccc1/C=C/C=C1\CCC=CC1=O
IC50 (HCT-116): 2.8 µM
IC50 (HGC-27 [1]): 3.1 µM
IC50 (HepG2): 5.8 µM
IC50 (Bel7402/5-FU [2]): 2.5 µM
IC50 (Bel-7402): 2.6 µM

O=C1C=CCC/C1=C\C=C\c1ccc(Br)cc1
IC50 (HCT-116): 5.2 µM
IC50 (HGC-27 [1]): 4.5 µM
IC50 (HepG2): 6.1 µM
IC50 (Bel7402/5-FU [2]): 4.3 µM
IC50 (Bel-7402): 3.6 µM

O=C(/C=C/C=C/c1ccc2c(c1)OCO2)N1CCCCC1 [PIPERINE]
IC50 (HepG2): > 10 µM
IC50 (Bel-7402): > 10 µM

COc1ccc(/C=C/C=C2\CCC=CC2=O)cc1
IC50 (HCT-116): 2.1 µM
IC50 (HGC-27 [1]): 3.2 µM
IC50 [3]: 0.4 µM
Activity (Bel7402/5-FU [4]): Active
IC50 (HepG2): 2.4 µM
IC50 (Bel7402/5-FU [2]): 1.7 µM
IC50 (Bel-7402): 1.4 µM

O=C1C=CCC/C1=C\C=C\c1ccc(Cl)cc1
IC50 (HCT-116): 3.5 µM
IC50 (HGC-27 [1]): 4.8 µM
IC50 (HepG2): 3.7 µM
IC50 (Bel7402/5-FU [2]): 3.2 µM
IC50 (Bel-7402): 3.2 µM

COc1cc(/C=C/C=C2\CCC=CC2=O)ccc1O
inhibition [5]: Dose-dependent effect
IC50 (HCT-116): 0.9 µM
selectivity ratio [6]: 6
Activity (Bel7402/5-FU [7]): 50%
IC50 (HGC-27 [1]): 1.2 µM
IC50 [3]: 0.2 µM
inhibition [8]: Dose-dependent effect
Ratio IC50 [9]: 9
Activity (Bel7402/5-FU [4]): Active
IC50 (HepG2): 0.9 µM
fold change (FC) (Bel7402/5-FU [10]): 10
Activity (Bel7402/5-FU [2]): Dose-dependent effect
IC50 (Bel7402/5-FU [2]): 0.8 µM
Activity (Bel7402/5-FU [11]): Dose-dependent effect
Activity (Bel7402/5-FU [12]): Dose-dependent effect
Ratio IC50 (HGC-27 [13]): 7
Activity (Bel7402/5-FU [14]): Dose-dependent effect
Activity (Bel7402/5-FU [15]): Active
Activity (Bel-7402): Dose-dependent effect
IC50 (Bel-7402): 0.8 µM
Activity (Bel7402/5-FU [16]): Active
Ratio IC50 (Bel7402/5-FU [17]): 10
Activity (Bel7402/5-FU [18]): Dose-dependent effect
Activity [19]: Dose-dependent effect
Ratio IC50 [20]: 6

O=C1C=CCC/C1=C\C=C\c1ccccc1[N+](=O)[O-]
IC50 (HCT-116): 6.2 µM
IC50 (HGC-27 [1]): 4.4 µM
IC50 (HepG2): 6.8 µM
IC50 (Bel7402/5-FU [2]): 5.2 µM
IC50 (Bel-7402): 4.6 µM

CN(C)c1ccc(/C=C/C=C2\CCC=CC2=O)cc1
IC50 (HCT-116): 1.2 µM
IC50 (HGC-27 [1]): 1.5 µM
IC50 [3]: 0.2 µM
Ratio IC50 [9]: 9
Activity (Bel7402/5-FU [4]): Active
IC50 (HepG2): 1.1 µM
IC50 (Bel7402/5-FU [2]): 1 µM
IC50 (Bel-7402): 0.9 µM

COc1cc(/C=C/C(=O)N2CCC=CC2=O)cc(OC)c1OC [PIPLARTINE]
IC50 (HCT-116): 6.9 µM
Activity (Bel7402/5-FU [21]): Active
IC50 (HGC-27 [1]): 8.1 µM
inhibition [22]: Active
inhibition [23]: Active
Activity (Bel7402/5-FU [24]): Active
Activity [25]: Active

O=C1C=CCC/C1=C\C=C\c1ccccc1
IC50 (HCT-116): 5.4 µM
IC50 (HGC-27 [1]): 4.5 µM
IC50 (HepG2): 7.1 µM
IC50 (Bel7402/5-FU [2]): 4.2 µM
IC50 (Bel-7402): 4.2 µM

O=C1C=CCC/C1=C\C(Br)=C\c1ccccc1
IC50 (HCT-116): > 10 µM
IC50 (HGC-27 [1]): > 10 µM
IC50 (HepG2): > 10 µM
IC50 (Bel7402/5-FU [2]): > 10 µM
IC50 (Bel-7402): > 10 µM

O=C1C=CCC/C1=C\C=C\c1ccc([N+](=O)[O-])cc1
IC50 (HCT-116): 5 µM
IC50 (HGC-27 [1]): 5.2 µM
IC50 (HepG2): 4.9 µM
IC50 (Bel7402/5-FU [2]): 4.5 µM
IC50 (Bel-7402): 4.2 µM
